Values quoted from earlier work, collected in patent US20080255097A1, “Methods for the Treatment of Substance Abuse and Dependence” (priority 2005, published 2008).

Key:
allopregnanolone [1] = conditions: in vivo
[2] = overdose
[3] = not given; remark: listed apart in the source
[4] = system: GABAA receptor α4 subunit mRNA; conditions: withdrawal after long-term exposure
[5] = system: GABAA receptor α4 subunit mRNA; conditions: exposure at the time of ethanol withdrawal
GABAA receptors = conditions: 10 μM diazepam substituted for ethanol
allopregnanolone [6] = conditions: in vivo; remark: listed apart in the source

CN1CCC[C@H]1c1cccnc1 [nicotine]
half-life (in vivo): about 60 minutes | cerebrocortical concentrations of allopregnanolone and its precursors (allopregnanolone [1]): increase

CCCC(C)(COC(N)=O)COC(N)=O [MEPROBROMATE]
highest ingested amount with survival [2]: much as 40 g.

C[C@]12C=CC(=O)N[C@@H]1CC[C@@H]1[C@@H]2CC[C@]2(C)[C@@H](C(=O)Nc3cc(C(F)(F)F)ccc3C(F)(F)F)CC[C@@H]12 [Dutasteride, (5α,17β)-N-{2,5 bis(trifluoromethyl)phenyl}-3-oxo-4-azaandrost-1-ene-17-carboxamide]
adverse effects compared with therapeutic dose of 0.5 mg ([3]; clinical study, daily doses of 5 mg, 60 subjects, 6 months): subjects for 6 months with no additional adverse effects to those | safety ([3]; volunteer studies, single doses up to 40 mg (80 times the therapeutic dose) for 7 days): without significant safety concerns. In a clinical study, daily doses

CCN(C(C)=O)c1cccc(-c2ccnc3c(C#N)cnn23)c1 [zalpelon]
amount of α4 subunit mRNA on withdrawal of the drug [4]: marked increase

Cc1ccc(-c2nc3ccc(C)cn3c2CC(=O)N(C)C)cc1 [zolpidem]
amount of α4 subunit mRNA on withdrawal of the drug [4]: marked increase

C=CCN1CC[C@]23c4c5ccc(O)c4O[C@H]2C(=O)CC[C@@]3(O)[C@H]1C5 [Naloxone, 17-allyl-4,5α-epoxy-3,14-dihydroxymorphinan-6-one]
half-life (in vivo): 1 to 1.67 h

CN1C(=O)CN=C(c2ccccc2)c2cc(Cl)ccc21 [diazepam]
amount of α4 subunit mRNA on withdrawal of the drug [4]: marked increase | effect on ethanol withdrawal-induced increase in abundance of α4 subunit mRNA [5]: antagonizes | effect on positive modulation of 3 μM flumazenil induced by ethanol withdrawal (GABAA receptors): negated

N[C@@H]1C[C@H]1c1ccccc1 (racemic) [TRANYLCYPROMINE]
time in which the drug is excreted (after withdrawal): 24 h

NCC1(CC(=O)O)CCCCC1 [Gabapentin]
half-life (in vivo): 5 to 7 h | metabolism (in vivo): not appreciably metabolized

CNCCC(Oc1ccc(C(F)(F)F)cc1)c1ccccc1 (stereo not drawn) [fluoxetine]
brain and cerebrospinal fluid content of allopregnanolone (allopregnanolone [6]): increase
